Drawing on patent US8309577B2, “Quinuclidine compounds as α-7 nicotinic acetylcholine receptor ligands” (Bristol-Myers Squibb Company, priority 2008, dated 2012), this text covers EC50 for 34 compounds.

By EC50 is commonly meant the midpoint of the concentration-response curve.

The experiment has as its target T1, α-7 nicotinic acetylcholine receptor channel expressed in HEK 293 cells (Rattus norvegicus, UniProt Q05941).
T1 construct: expressed in transfected cells
Put plainly: Ca2+-sensitive fluorescence-based FLIPR assay, α7 nicotinic ACh receptor channel function (agonist). The class given is cell-based. As to the method:
I) α7 Nicotinic Acetycholine Receptor Binding. Membranes were prepared for binding using HEK293 cells stably expressing the rat α7 nicotinic acetycholine receptor (rat α7 nAChR). Cells were homogenized at 4° C. in hypotonic lysis buffer consisting of 10 mM Tris (pH 7.4), 5 mM EDTA and protease inhibitors and centrifuged at 32000×g for 20 minutes. The pellet was washed once in membrane wash buffer consisting of 50 mM Tris (pH 7.4), 1 mM EDTA and protease inhibitors and centrifuged at 32000×g for 20 minutes. This pellet was then resuspended in assay buffer consisting 50 mM KH2PO4 (pH 7.4 at 25° C.), 1 mM EDTA, 0.005% Triton-X 100 and 0.1% (v/v) Sigma Protease Inhibitor Cocktail. Aliquots were then frozen in dry ice/ethanol and kept at −80° C. until the day of the assay. II) A Ca^2+-Sensitive, Fluorescence-Based Assay α-7 for Nicotinic Acetylcholine Receptor Channel Function In Mammalian Cells (“FLIPR”). Summary: Lead compounds are evaluated for agonist activity at […], α3β4, […], and α1β1δ1ε sub-types of nicotinic ACh receptor ion channels expressed in mammalian HEK 293 cells. Agonist potency and efficacy values are determined from kinetic fluorescence Ca^2+ influx measurements made using a 384 well FLIPR (Fluorescence Image Plate Reader). […] In this assay, channel expressing HEK cell lines seeded in 384 well assay plates are loaded with a membrane permeant fluorescent Ca^2+ indicator dye, whose 510 nm green emission signal increases in response to elevation of intracellular Ca^2+ concentration. The basal fluorescence from the cells is monitored in real time, followed by the acute addition of test compounds.
Materials and Methods: Reagents: The acetomethoxy (AM) ester of the Ca^2+ indicator dye Fluo-4 was obtained from InVitrogen, (Carlsbad, Calif.). Acetylcholine and all buffer constituents were purchased from Sigma Chemical Company, St. Louis, Mo. G418 and Minimal Essential Medium were purchased from InVitrogen Life Technologies, Carlsbad, Calif. Fetal bovine serum was purchased from (InVitrogen, Carlsbad, Calif.).
Cell Culture: HEK-293 cells were grown in Minimal Essential Medium containing 10% (v/v) fetal bovine serum at 37° C. in a 5% CO2 incubator. HEK-293 cells stably expressing the ion channels were grown in the same medium with the addition of 500 μg/ml G418.
Ca^2+ flux assays of Ca^2+ channels expressed in HEK-293 cells: HEK-293 cells expressing the ion channels of interest were plated in 384 well, black-walled, clear-bottomed, poly-D-lysine coated plates at a density of ˜20,000 cells/well in 20 μl of Minimal Essential Medium containing 10% (v/v) fetal bovine serum and incubated for 2 days at 29° C. in a 5% CO2 incubator. Prior to assay, cells were loaded with the Fluo-4 AM ester. […] Dye loading was allowed to proceed for 90 minutes at room temperature at which time the dye loading solution was removed and replaced with 40 μl/well of Hanks buffer. Cells loaded with dye were loaded onto a FLIPR384 (Molecular Devices, Sunnyvale, Calif.). Fluo-4 dye was excited using the 488 nm line of an argon laser. Emission was filtered using a 540+/−30 nm bandpass filter. For evaluation of the effects of test compounds using the Ca^2+ flux assay, compounds to be tested were provided in assay ready plates. For nicotinic receptor ion channel expressing cells, the assay was initiated by the addition of 20 μl/well of Hanks buffer containing test compounds. For all assays, data were collected at 1 Hz for 10 seconds (baseline), at which time the compound containing stimulus buffers are added, and further measurements collected at 0.33 Hz for 3 min.
Data Analysis: The statistical robustness of the nicotinic receptor Ca^2+ flux assays is determined from blanks and totals wells. […] The raw fluorescence units data files generated on the FLIPR plate reader are automatically exported and processed by in-house data analysis tools.

Where [1] appears, read: FLIPR α7 activity rating (EC50, nM), Table 1, HEK 293 cells, agonist Ca2+ flux.
[2] abbreviates: FLIPR α7 (EC50, nM), Table 1, HEK 293 cells, agonist Ca2+ flux.

Structures are written as SMILES. Like-named read-outs stand apart in the source and are kept apart here. Some results are limits rather than exact numbers.

T1 sequence (Q05941 23-502): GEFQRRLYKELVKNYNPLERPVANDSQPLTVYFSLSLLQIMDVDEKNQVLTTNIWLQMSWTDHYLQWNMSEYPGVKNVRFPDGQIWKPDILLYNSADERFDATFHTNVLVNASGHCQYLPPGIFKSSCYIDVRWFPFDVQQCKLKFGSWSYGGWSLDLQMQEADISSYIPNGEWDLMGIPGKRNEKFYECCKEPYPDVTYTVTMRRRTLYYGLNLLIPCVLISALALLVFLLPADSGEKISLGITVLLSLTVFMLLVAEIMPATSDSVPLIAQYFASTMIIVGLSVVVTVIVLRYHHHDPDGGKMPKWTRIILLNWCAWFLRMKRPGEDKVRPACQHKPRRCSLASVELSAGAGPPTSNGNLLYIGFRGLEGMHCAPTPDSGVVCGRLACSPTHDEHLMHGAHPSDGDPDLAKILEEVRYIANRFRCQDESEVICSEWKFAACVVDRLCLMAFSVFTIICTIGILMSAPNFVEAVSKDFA

For the compound `COc1ccc2nc(NC3=NCC4(CN5CCC4CC5)O3)sc2n1` (single isomer, unassigned) [Example 2a], the EC50 under setting [1] was 1000 to 100000 nM.
The compound `COc1ccc2nc(NC3=NCC4(CN5CCC4CC5)O3)sc2n1` (single isomer, unassigned) [Example 2b] came in with an EC50 under setting [1] of 100 to 1000 nM.
Same read-out and setting: then `c1ccc(-c2cnc(NC3=NCC4(CN5CCC4CC5)O3)s2)cc1` (single isomer, unassigned) [Example 4a], with 1000 to 100000 nM.
For `c1ccc(-c2cnc(NC3=NCC4(CN5CCC4CC5)O3)s2)cc1` (single isomer, unassigned) [Example 4b], the EC50 reads like this: under setting [2], 230 nM; under setting [1], 100 to 1000 nM.
Consider `COc1ccc2nc(NC3=NCC4(CN5CCC4CC5)O3)sc2c1` (single isomer, unassigned) [Example 5a], for which, under setting [1], the EC50 was 1000 to 100000 nM.
`COc1ccc2nc(NC3=NCC4(CN5CCC4CC5)O3)sc2c1` (single isomer, unassigned) [Example 5b]: the half-maximal effective concentration (EC50) under setting [1] was < 100 nM.
`Cc1cccc2sc(NC3=NCC4(CN5CCC4CC5)O3)nc12` (single isomer, unassigned) [Example 6a] had a concentration giving a half-maximal response (EC50) under setting [2] of 4340 nM and an EC50 under setting [1] of 1000 to 100000 nM.
With `Cc1cccc2sc(NC3=NCC4(CN5CCC4CC5)O3)nc12` (single isomer, unassigned) [Example 6b], the 50% effective concentration (EC50) under setting [1] was < 100 nM.
In the case of `Clc1cccc2sc(NC3=NCC4(CN5CCC4CC5)O3)nc12` (single isomer, unassigned) [Example 7a], the EC50 under setting [1] lay in the range of 1000 to 100000 nM.
The same measure, in the same setting: the value for `Clc1cccc2sc(NC3=NCC4(CN5CCC4CC5)O3)nc12` (single isomer, unassigned) [Example 7b] was < 100 nM.
In the case of `c1ccc2[nH]c(NC3=NCC4(CN5CCC4CC5)O3)nc2c1` (single isomer, unassigned) [Example 8a, N-(1H-benzo[d]imidazol-2-yl)-4H-1′-azaspiro[oxazole-5,3′-bicyclo[2.2.2]octan]-2-amine], the EC50 is 120 nM under setting [2] and 100 to 1000 nM under setting [1].
`c1ccc2[nH]c(NC3=NCC4(CN5CCC4CC5)O3)nc2c1` (single isomer, unassigned) [Example 8b, N-(1H-benzo[d]imidazol-2-yl)-4H-1′-azaspiro[oxazole-5,3′-bicyclo[2.2.2]octan]-2-amine] gave an EC50 under setting [1] of 1000 to 100000 nM.
Regarding `Clc1ccc2nc(NC3=NCC4(CN5CCC4CC5)O3)sc2c1` (single isomer, unassigned) [Example 9a, N-(6-Chlorobenzo[d]thiazol-2-yl)-4H-1′-azaspiro[oxazole-5,3′-bicyclo[2.2.2]octan]-2-amine], the EC50 under setting [2] is 7310 nM and the EC50 under setting [1] was 1000 to 100000 nM.
For the compound `Clc1ccc2nc(NC3=NCC4(CN5CCC4CC5)O3)sc2c1` (single isomer, unassigned) [Example 9b, N-(6-Chlorobenzo[d]thiazol-2-yl)-4H-1′-azaspiro[oxazole-5,3′-bicyclo[2.2.2]octan]-2-amine], the EC50 under setting [1] was < 100 nM.
Take `Cn1c(NC2=NCC3(CN4CCC3CC4)O2)nc2ccccc21` (single isomer, unassigned) [Example 10a, N-(1-methyl-1H-benzo[d]imidazol-2-yl)-4H-1′-azaspiro[oxazole-5,3′-bicyclo[2.2.2]octan]-2-amine]: the EC50 under setting [1] lay in the range of 100 to 1000 nM.
Turning to `CCOc1ccc2nc(NC3=NCC4(CN5CCC4CC5)O3)sc2c1` (single isomer, unassigned) [Example 11b, N-(6-Ethoxybenzo[d]thiazol-2-yl)-4H-1′-azaspiro[oxazole-5,3′-bicyclo[2.2.2]octan]-2-amine], the EC50 reads like this: under setting [2], 213 nM; under setting [1], 100 to 1000 nM.
`Cc1ccc2nc(NC3=NCC4(CN5CCC4CC5)O3)sc2c1` (single isomer, unassigned) [Example 12a, N-(6-Methylbenzo[d]thiazol-2-yl)-4H-1′-azaspiro[oxazole-5,3′-bicyclo[2.2.2]octan]-2-amine] had an EC50 under setting [1] of 100 to 1000 nM.
For the compound `Cc1ccc2nc(NC3=NCC4(CN5CCC4CC5)O3)sc2c1` (single isomer, unassigned) [Example 12b, N-(6-Methylbenzo[d]thiazol-2-yl)-4H-1′-azaspiro[oxazole-5,3′-bicyclo[2.2.2]octan]-2-amine], under setting [1], the EC50 was in the range of 1000 to 100000 nM.
In the case of `Oc1ccc2nc(NC3=NCC4(CN5CCC4CC5)O3)sc2c1` (single isomer, unassigned) [Example 13a], the EC50 under setting [1] was in the range of 100 to 1000 nM.
Turning to `Oc1ccc2nc(NC3=NCC4(CN5CCC4CC5)O3)sc2c1` (single isomer, unassigned) [Example 13b], under setting [1], the EC50 is < 100 nM.
The compound `C1CCc2sc(NC3=NCC4(CN5CCC4CC5)O3)nc2C1` (single isomer, unassigned) [Example 14b] came in with an EC50 under setting [1] of 100 to 1000 nM.
For the compound `CC(C)c1csc(NC2=NCC3(CN4CCC3CC4)O2)n1` (single isomer, unassigned) [Example 15a], the EC50 was 6350 nM under setting [2] and 1000 to 100000 nM under setting [1].
As to `CC(C)c1csc(NC2=NCC3(CN4CCC3CC4)O2)n1` (single isomer, unassigned) [Example 15b], the EC50 under setting [1] is 100 to 1000 nM.
`c1csc(NC2=NCC3(CN4CCC3CC4)O2)n1` (single isomer, unassigned) [Example 16a]: the EC50 by setting is: under setting [2], 3170 nM; under setting [1], 1000 to 100000 nM.
For the compound `c1csc(NC2=NCC3(CN4CCC3CC4)O2)n1` (single isomer, unassigned) [Example 16b], the EC50 under setting [1] lay within 100 to 1000 nM.
Take `COc1ccc(-c2csc(NC3=NCC4(CN5CCC4CC5)O3)n2)cc1` (single isomer, unassigned) [Example 20a]: the EC50 under setting [1] is 100 to 1000 nM.
On to `COc1ccc(-c2csc(NC3=NCC4(CN5CCC4CC5)O3)n2)cc1` (single isomer, unassigned) [Example 20b], for which the 50% effective concentration (EC50) by setting is: under setting [2], 318 nM; (read-out: FLIPR α7 activity rating (EC50), Table 1, HEK 293 cells, agonist Ca2+ flux) 100 to 1000 nM.
In turn, `O=C(c1ccc2nc(NC3=NCC4(CN5CCC4CC5)O3)sc2c1)N1CCCC1` (stereo not shown) [Example 3] showed an EC50 of 3840 nM. The compound also registered an EC50 under setting [1] of 1000 to 100000 nM.
Under setting [1], `COc1ccc2nc(NC3=NCC4(CN5CCC4CC5)O3)sc2c1` (stereo not shown) [Example 5, N-(6-Methoxybenzo[d]thiazol-2-yl)-4H-1′-azaspiro[oxazole-5,3′-bicyclo[2.2.2]octan]-2-amine] gave an EC50 of 100 to 1000 nM.
Still for that read-out and setting: the value for `Cc1cccc2sc(NC3=NCC4(CN5CCC4CC5)O3)nc12` (stereo not shown) [Example 6, N-(4-Methylbenzo[d]thiazol-2-yl)-4H-1′-azaspiro[oxazole-5,3′-bicyclo[2.2.2]octan]-2-amine] was 100 to 1000 nM.
With `Clc1ccc2nc(NC3=NCC4(CN5CCC4CC5)O3)sc2c1` (stereo not shown) [Example 9, N-(6-Chlorobenzo[d]thiazol-2-yl)-4H-1′-azaspiro[oxazole-5,3′-bicyclo[2.2.2]octan]-2-amine], under setting [1], the EC50 lay in the range of 100 to 1000 nM.
`Cn1c(NC2=NCC3(CN4CCC3CC4)O2)nc2ccccc21` (stereo not shown) [Example 10, N-(1-methyl-1H-benzo[d]imidazol-2-yl)-4H-1′-azaspiro[oxazole-5,3′-bicyclo[2.2.2]octan]-2-amine] yielded an EC50 under setting [1] of 100 to 1000 nM.
In the case of `CCOc1ccc2nc(NC3=NCC4(CN5CCC4CC5)O3)sc2c1` (stereo not shown) [Example 11, N-(6-Ethoxybenzo[d]thiazol-2-yl)-4H-1′-azaspiro[oxazole-5,3′-bicyclo[2.2.2]octan]-2-amine], the EC50 under setting [1] is 100 to 1000 nM.
Under setting [1], `Cc1ccc2nc(NC3=NCC4(CN5CCC4CC5)O3)sc2c1` (stereo not shown) [Example 12, N-(6-Methylbenzo[d]thiazol-2-yl)-4H-1′-azaspiro[oxazole-5,3′-bicyclo[2.2.2]octan]-2-amine] displayed an EC50 of 100 to 1000 nM.
